Among the data in US10377770B2 (Novartis AG, priority 2015, dated 2019) are IC50 values, retold here.

For the test, the target named is C-Raf FL (full length CRAF with Y340E and Y341E activating mutations, co-expressed with h14-3-3 zeta) (Homo sapiens (Human), UniProt P04049, Y340E/Y341E). In words: In vitro Raf activity determination, AlphaScreen p-MEK readout, c-Raf (C-Raf FL). The format is biochemical. The note with it: c-Raf approximately 4 nM, ATP 1 μM, pre-incubation 60 minutes, reaction 1 hour. In a few lines:
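Phosphorylation of kinase-dead biotinylated MEK1 (~10 nM) by C-Raf FL (~4 nM) read by AlphaScreen luminescence with anti-phospho-MEK1/2 after EDTA stop. ATP was 1 μM, with a 1 h reaction at room temperature. Compounds were pre-incubated with enzyme and substrate for 60 min in Tris/MgCl2 buffer, pH 7.5.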
(Alpha assays give light when donor and acceptor beads are brought close together.)

Sequence of C-Raf FL (full length CRAF with Y340E and Y341E activating mutations, co-expressed with h14-3-3 zeta) (P04049 whole entry Y340E/Y341E): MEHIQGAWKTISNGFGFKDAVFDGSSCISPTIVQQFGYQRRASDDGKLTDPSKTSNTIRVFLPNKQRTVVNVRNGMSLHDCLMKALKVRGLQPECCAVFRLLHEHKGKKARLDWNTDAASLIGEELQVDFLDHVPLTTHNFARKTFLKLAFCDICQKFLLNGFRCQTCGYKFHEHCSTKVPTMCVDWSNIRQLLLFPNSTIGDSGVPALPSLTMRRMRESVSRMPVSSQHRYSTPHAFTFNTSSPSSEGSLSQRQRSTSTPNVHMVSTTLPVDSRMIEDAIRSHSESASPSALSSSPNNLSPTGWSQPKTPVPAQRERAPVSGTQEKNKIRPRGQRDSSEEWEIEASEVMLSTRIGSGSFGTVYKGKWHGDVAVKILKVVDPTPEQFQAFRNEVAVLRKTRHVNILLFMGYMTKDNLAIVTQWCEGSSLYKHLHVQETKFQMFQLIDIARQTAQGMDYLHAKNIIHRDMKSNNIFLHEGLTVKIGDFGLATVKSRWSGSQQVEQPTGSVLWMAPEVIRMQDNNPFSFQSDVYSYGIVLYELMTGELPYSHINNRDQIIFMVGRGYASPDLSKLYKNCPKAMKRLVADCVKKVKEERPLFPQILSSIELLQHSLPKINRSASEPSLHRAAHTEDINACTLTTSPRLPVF
Sequence of C-Raf FL (full length CRAF with Y340E and Y341E activating mutations, co-expressed with h14-3-3 zeta) (P63104 whole entry partner): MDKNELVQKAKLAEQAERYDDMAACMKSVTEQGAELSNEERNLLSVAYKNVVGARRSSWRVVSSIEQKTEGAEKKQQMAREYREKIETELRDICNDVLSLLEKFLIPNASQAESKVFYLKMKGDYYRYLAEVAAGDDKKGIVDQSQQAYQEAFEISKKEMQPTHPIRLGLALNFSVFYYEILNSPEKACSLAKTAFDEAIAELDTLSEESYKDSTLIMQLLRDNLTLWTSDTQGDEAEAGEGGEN

`Cc1ncc(NC(=O)c2cccc(C(F)(F)F)c2)cc1-c1cnc2c(c1)[C@@H]1CCOC[C@H]1C(=O)N2C(C)C` [Example 262, N-(5-((4aS, 10bR)-6-isopropyl-5-oxo-2,4,4a,5,6,10b-hexahydro-1H-pyrano[3,4-c][1,8]naphthyridin-9-yl)-6-methylpyridin-3-yl)-3-(trifluoromethyl) benzamide]: the midpoint of inhibition, the IC50, lay at 0.7 nM.
With `Cc1ccc(NC(=O)c2ccnc(C(C)(F)F)c2)cc1-c1cnc2c(c1)[C@@H]1CCOC[C@H]1C(=O)N2C(C)C` [Example 263, 2-(1,1-difluoroethyl)-N-(3-((4aS, 10bR)-6-isopropyl-5-oxo-2,4,4a,5,6,10b-hexahydro-1H-pyrano[3,4-c][1,8]naphthyridin-9-yl)-4-methylphenyl) isonicotinamide] the figure was 0.3 nM; with `Cc1ccc(NC(=O)c2ccnc(C(C)(F)F)c2)cc1-c1cnc2c(c1)[C@@H]1CCOC[C@H]1C(=O)N2CC(F)F` [Example 265, 2-(1,1-difluoroethyl)-N-(3-((4aS, 10bR)-6-(2,2-difluoroethyl)-5-oxo-2,4,4a,5,6,10b-hexahydro-1H-pyrano[3,4-c][1,8]naphthyridin-9-yl)4-methylphenyl) isonicotinamide], 0.1 nM; with `Cc1ncc(NC(=O)c2cccc(C(F)(F)F)c2)cc1-c1cnc2c(c1)[C@@H]1CCOC[C@H]1C(=O)N2CC(F)F` [Example 266, N-(5-((4aS, 10bR)-6-(2,2-difluoroethyl)-5-oxo-2,4,4a,5,6,10b-hexahydro-1H-pyrano[3,4-c][1,8]naphthyridin-9-yl)-6-methylpyridin-3-yl)-3-(trifluoromethyl) benzamide], 0.3 nM.
To `CCN1C(=O)[C@@H]2[C@H]3COC[C@H]3[C@@H]2c2cc(-c3cc(NC(=O)c4ccnc(C(C)(F)F)c4)ccc3C)cnc21` [Example 269, 2-(1,1-difluoroethyl)-N-(3-((6aS, 6bS, 9aS, 9bS)-5-ethyl-6-oxo-5,6,6a,6b,7,9,9a,9b-octahydrofuro[3′,4′: 3,4]cyclobuta[1,2-c][1,8]naphthyridin-2-yl)-4-methylphenyl) isonicotinamide] belongs 0.3 nM; to `CCN1C(=O)[C@H]2[C@@H]3COC[C@@H]3[C@H]2c2cc(-c3cc(NC(=O)c4ccnc(C(F)(F)F)c4)ccc3C)cnc21` [Example 270, N-(3-((6aR, 6bR, 9aR, 9bR)-5-ethyl-6-oxo-5,6,6a,6b,7,9,9a,9b-octahydrofuro[3′,4′: 3,4]cyclobuta[1,2-c][1,8]naphthyridin-2-yl)-4-methylphenyl)-2-(trifluoromethyl) isonicotinamide], 0.2 nM; to `CCN1C(=O)[C@H]2[C@@H]3COC[C@@H]3[C@H]2c2cc(-c3cc(NC(=O)c4ccnc(C(C)(F)F)c4)ccc3C)cnc21` [Example 271, 2-(1,1-difluoroethyl)-N-(3-((6aR, 6bR, 9aR, 9bR)-5-ethyl-6-oxo-5,6,6a,6b,7,9,9a,9b-octahydrofuro[3′,4′: 3,4]cyclobuta[1,2-c][1,8]naphthyridin 2-yl)-4-methylphenyl) isonicotinamide], 0.2 nM.
On to `CCN1C(=O)[C@@H]2[C@H]3COC[C@H]3[C@@H]2c2cc(-c3cc(NC(=O)c4cccc(C(F)(F)F)c4)cnc3C)cnc21` [Example 272, N-(5-((6aS, 6bS, 9aS, 9bS)-5-ethyl-6-oxo-5,6,6a,6b,7,9,9a,9b-octahydrofuro[3′,4′: 3,4]cyclobuta[1,2-c][1,8]naphthyridin-2-yl)-6-methylpyridin-3-yl)-3-(trifluoromethyl) benzamide], for which the IC50 (in general, the concentration at which inhibition is half-maximal) worked out at 0.5 nM.
To `CCN1C(=O)[C@@H]2[C@H]3COC[C@H]3[C@@H]2c2cc(-c3cc(NC(=O)c4ccnc(C(F)(F)F)c4F)ccc3C)cnc21` [Example 273, N-(3-((6aS, 6bS, 9aS, 9bS)-5-ethyl-6-oxo-5,6,6a,6b,7,9,9a,9b-octahydrofuro[3′,4′: 3,4]cyclobuta[1,2-c][1,8]naphthyridin-2-yl)-4-methylphenyl)-3-fluoro-2-(trifluoromethyl) isonicotinamide] belongs 0.2 nM; to `CCN1C(=O)[C@@H]2[C@H]3COC[C@H]3[C@@H]2c2cc(-c3cc(NC(=O)c4cncc(C(F)(F)F)c4)ccc3C)cnc21` [Example 274, N-(3-((6aS, 6bS, 9aS, 9bS)-5-ethyl-6-oxo-5,6,6a,6b,7,9,9a,9b-octahydrofuro[3′,4′: 3,4]cyclobuta[1,2-c][1,8]naphthyridin-2-yl)-4-methylphenyl)-5-(trifluoromethyl) nicotinamide], 0.5 nM.
With `CCN1C(=O)[C@H]2[C@@H]3COC[C@@H]3[C@H]2c2cc(-c3cc(NC(=O)c4cccc(C(F)(F)F)c4)cnc3C)cnc21` [Example 275, N-(5-((6aR, 6bR, 9aR, 9bR)-5-ethyl-6-oxo-5,6,6a,6b,7,9,9a,9b-octahydrofuro[3′,4′: 3,4]cyclobuta[1,2-c][1,8]naphthyridin-2-yl)-6-methylpyridin-3-yl)-3-(trifluoromethyl) benzamide] the figure was 0.8 nM.
With `CCN1C(=O)[C@H]2[C@@H]3COC[C@@H]3[C@H]2c2cc(-c3cc(NC(=O)c4ccnc(C(F)(F)F)c4F)ccc3C)cnc21` [Example 276, N-(3-((6aR, 6bR, 9aR, 9bR)-5-ethyl-6-oxo-5,6,6a,6b,7,9,9a,9b-octahydrofuro[3′,4′: 3,4]cyclobuta[1,2-c][1,8]naphthyridin-2-yl)-4-methylphenyl)-3-fluoro-2-(trifluoromethyl) isonicotinamide] the figure was 0.5 nM.
The compound `CCN1C(=O)[C@H]2[C@@H]3COC[C@@H]3[C@H]2c2cc(-c3cc(NC(=O)c4cncc(C(F)(F)F)c4)ccc3C)cnc21` [Example 277, N-(3-((6aR, 6bR, 9aR, 9bR)-5-ethyl-6-oxo-5,6,6a,6b,7,9,9a,9b-octahydrofuro[3′,4′: 3,4]cyclobuta[1,2-c][1,8]naphthyridin-2-yl)-4-methylphenyl)-5-(trifluoromethyl) nicotinamide] returned an IC50 of 0.1 nM.
To `Cc1ccc(NC(=O)c2ccnc(C(F)(F)F)c2)cc1-c1cnc2c(c1)C1C3COCC3C1C(=O)N2CCO` (stereo not shown) [Example 278, N-(3-(5-(2-hydroxyethyl)-6-oxo-5,6,6a,6b,7,9,9a,9b-octahydrofuro[3′,4′: 3,4]cyclobuta[1,2-c][1,8]naphthyridin 2-yl)-4-methylphenyl)-2-(trifluoromethyl) isonicotinamide] belongs 0.3 nM; to `Cc1ccc(NC(=O)c2ccnc(C(C)(F)F)c2)cc1-c1cnc2c(c1)C1C3COCC3C1C(=O)N2CCO` (stereo not shown) [Example 279, 2-(1,1-difluoroethyl)-N-(3-(5-(2-hydroxyethyl)-6-oxo-5,6,6a,6b,7,9,9a,9b-octahydrofuro[3′,4′: 3,4]cyclobuta[1,2-c][1,8]naphthyridin-2-yl)-4-methylphenyl) isonicotinamide], 0.4 nM.
To `Cc1ccc(NC(=O)c2ccnc(C(F)(F)F)c2F)cc1-c1cnc2c(c1)C1C3COCC3C1C(=O)N2CCO` (stereo not shown) [Example 280, 3-fluoro-N-(3-(5-(2-hydroxyethyl)-6-oxo-5,6,6a,6b,7,9,9a,9b-octahydrofuro[3′,4′: 3,4]cyclobuta[1,2-c][1,8]naphthyridin-2-yl)-4-methylphenyl)-2-(trifluoromethyl) isonicotinamide] belongs 0.5 nM.
